Where two headings read alike, the source gives them in different places.
Columns and labels:
GLO1 = molecular target: T1, GLO1 (Homo sapiens, UniProt Q04760); assay: Thermal shift assay; assay type: binding; details: thermal shift assay (Table S7)
T1 sequence (Q04760 2-184 limits assumed): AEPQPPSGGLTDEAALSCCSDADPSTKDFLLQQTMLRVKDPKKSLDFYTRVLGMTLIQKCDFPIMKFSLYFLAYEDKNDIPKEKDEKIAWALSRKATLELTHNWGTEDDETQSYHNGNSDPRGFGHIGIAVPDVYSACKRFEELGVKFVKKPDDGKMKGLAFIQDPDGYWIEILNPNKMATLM

[1] = molecular target: Human carbonic anhydrase II (hCAII) (Homo sapiens, UniProt P00918); assay: hCAII inhibition assay; assay type: biochemical
[2] = molecular target: T2, Recombinant human glyoxalase I (GLO1) (Homo sapiens, UniProt Q04760); assay: GLO1 inhibition assay; assay type: biochemical
T2 sequence (Q04760 2-184 limits assumed): T1 sequence (Q04760 2-184 limits assumed)

[3] = molecular target: Human recombinant MMP-2 catalytic domain (Homo sapiens, UniProt P08253); assay: MMP-2 fluorogenic substrate inhibition assay; details: for Percent inhibition MMP-2: SD of triplicate in parentheses
[4] = logP by potentiometric octanol/water titration; assay type: physicochemical
[5] = pKa determination with SiriusT3; assay type: physicochemical; details: SiriusT3, range pH 2.0 – 12.0, 0.15 M KCl
[6] = 200 μM, SD of triplicate in parentheses

Human recombinant MMP-2 catalytic domain, sequence (P08253 110-452 limits assumed): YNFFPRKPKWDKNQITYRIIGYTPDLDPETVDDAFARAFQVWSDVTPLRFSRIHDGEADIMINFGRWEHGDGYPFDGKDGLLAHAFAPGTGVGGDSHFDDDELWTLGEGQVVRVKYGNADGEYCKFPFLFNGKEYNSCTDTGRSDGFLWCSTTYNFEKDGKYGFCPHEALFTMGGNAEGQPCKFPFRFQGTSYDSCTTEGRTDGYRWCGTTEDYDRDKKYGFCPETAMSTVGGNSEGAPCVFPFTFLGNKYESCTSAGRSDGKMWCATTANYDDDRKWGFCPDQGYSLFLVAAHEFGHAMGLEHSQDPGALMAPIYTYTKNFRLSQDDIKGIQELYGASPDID

Oc1cccc2cccnc12 [8-HQ, 8-Hydroxyquinoline, reference compound]
ΔTM of MBI-bound GLO1 vs native, unbound GLO1 (GLO1): > 3 °C | inhibition at 200 µM ([1]; read-out: Percent inhibition hCAII): < 5% | inhibition at 200 µM ([2]; read-out: Percent inhibition GLO1): 95% | IC50 [3]: 166 µM | inhibition at 200 µM ([3]; read-out: Percent inhibition MMP-2): 57% | logP ([4]; octanol/water): 1.86 | logD ([4]; octanol/water, pH 7.4): 1.85

COCCCn1ccc2cc(-c3cc(-c4ccccc4)cc(=O)n3O)cnc21 [Chugai-3d, reference compound]
Inhibition of GLO1 by positive control ([2]; 50 μM final concentration): complete inhibition

Oc1ccc2ncccc2c1 [Compound 32]
Reduction of GLO1 inhibition activity compared to 8-HQ ([2]; 200 μM): > 50% | Percent inhibition GLO1 [2, 6]: <5% | Reduction of MMP-2 inhibition activity compared to 8-HQ ([3]; 200 μM): > 50% | Percent inhibition MMP-2 ([3]; 200 μM): 26 (7) %

CS(=O)(=O)Nc1cccc2cccnc12 [MBI 18]
Percent inhibition hCAII [1, 6]: <5% | Percent inhibition MMP-2 ([3]; 200 μM): 59 (2) % | IC50 ([3]; read-out: IC50 MMP-2, dose-response 10 μM to 1000 or 1500 μM (Figure S2)): 154 ± 9.8 µM | Measured pKa1 (conjugated acid, protonated nitrogen of heteroaromatic ring) [5]: 3.17 | Measured pKa2 (hydroxyl group or its isosteric replacement) [5]: 8.97 | Measured logD7.4 ([4]; derived from measured pKa and logP, pH 7.4): 0.99 | Measured logP ([4]; octanol/water, potentiometric, SiriusT3): 1.01

COc1ccc(S(=O)(=O)N(CC(=O)NO)CC(C)C)cc1 [NNGH, reference compound]
Inhibition of MMP-2 by positive control ([3]; 50 μM final concentration): complete inhibition
